Patent US5559115A, “Oncogene function-inhibitory agent, method for inhibiting oncogene function, and treatment of cancer” (Terumo Kabushiki Kaisha, priority 1993, dated 1996)
In brackets after ≈: the same amount, converted by molar mass. Entries after “also recorded” stand apart in the source; their conditions may differ. Read-outs that look alike come from different tables or passages of the source.

How the values were obtained:
H-ras-NIH 3T3 cells [1] = experiment: Effect on production of actin filaments, H-ras-NIH 3T3 cells; format: cell-based, mouse; details: 1 μg/ml, one day
Description: A cover glass with a diameter of 18 mm (manufactured by Matsunami Glass Industry K.K.) that had been washed with 100% ethanol, dried, and sterilized was placed in wells of 12 wells plastic plate, and the cells were inoculated in the wells at 3.0×10^4 /DMEM 1 ml/well. The plate was incubated in an incubator of 5% CO2 for 1 day. To the thus incubated cell culture was added 1 μg/ml of III-121C, and the incubation was continued for another one day. The cell culture was then fixed with paraformaldehyde. The fixed cell culture was reacted with rhodamine pharoidine reagent (Molecular Probe Inc.) to examine the cell morphology by fluorescence microscope with G filter (excitation, 546 nm).

K-ras-NRK tumor = experiment: Growth of K-ras-NRK tumor in nude mice; format: in vivo; details: K-ras-NRK s.c., intraperitoneal, days 0, 2, 4 (FIG. 8)
Description: To 4 groups of nude mice (each group comprising 6 individuals) were subcutaneously inoculated 1×10^6 cells of K-ras-NRK on their back. Formation of a small tumor was recognized after 4 days from the inoculation, and intraperitoneal administration of III-121C at different doses was started on this day (day 0). III-121C was additionally administered after two days and four days from the start of the administration to measure the volume of the tumor. No III-121C was administered to the mice of the control group. The results are depicted in FIG. 8.

K-ras^ts NRK cells = experiment: Propagation inhibitory effect on K-ras^ts NRK cells; format: cell-based, rat; details: for IC50: Rattus norvegicus, NRK, 72 h, K-ras^ts NRK, 3 days, read-out: IC50, cell propagation
Description: (§1) Normal rat kidney cell, NRK-49 (Dainihon Pharmaceutical K.K.) and normal mouse cell, NIH 3T3 (JCRB Cell Bank); and K-ras NIH 3T3, H-ras NIH 3T3, and N-ras NIH 3T3 (Tokyo University, Medical Science Institute, Japan) which are cell lines that have been transformed with Kirsten sarcoma virus, Harvey sarcoma virus, and neuroblastoma virus, respectively, were incubated at 37° C. in the similar manner.
Cells of K-ras^ts -NRK were inoculated in wells of 24 wells plastic plate (Costar 3524, manufactured by Costar) at 1.0×10^4 /DMEM 1 ml/well, and the plate was incubated in an incubator of 5% CO2 at 33° C. for one day. III-121C was added to the thus incubated cells to different concentrations and the incubation was continued. After predetermined periods, the medium was removed of the cell culture, and cells were peeled off the wall of the well by using trypsin. DMEM was added to the well to uniformly suspend the cells, and the cell concentration in the suspension was measured with Coulter counter (ZM type manufactured by Coulter Electronics) to obtain the results shown in FIG. 7.
(§2) Next, cells of different types were inoculated in wells of 12 wells plastic plate (Costar 3521, manufactured by Costar) at 2.0×10^4 /DMEM 1 ml/well, and the plate was incubated in an incubator of 5% CO2 for one day. III-121C was added to the thus incubated cells to different concentrations and incubation was continued for another 3 days. The number of cells was measured by repeating the above-described procedure to determine the concentration (IC50) of the III-121C required to inhibit the cell propagation to 50%.

H-ras-NIH 3T3 cells [2] = experiment: Propagation inhibitory effect on H-ras-NIH 3T3 cells; format: cell-based; details: Mus musculus, NIH3T3, 72 h; H-ras-NIH 3T3, 3 days; read-out: IC50, cell propagation
Description: as §1, §2

[3] = Acute toxicity (LD50) on mouse upon intravenous injection; format: in vivo; details: in vivo, intravenous injection
Description: (§3) Toxicity (LD50) on mouse of III-121C upon intravenous injection was measured.

mouse = experiment: as above; format: in vivo; details: compared to conventional alkaloid carcinostatics of plant origin
Description: as §3

K-ras-NIH 3T3 cells [4] = experiment: Activity to induce changes in cell morphology, K-ras-NIH 3T3 cells; format: cell-based, mouse; details: 0.3 μg/ml, 2 days
Description: as §1
The effect of the III-121C on various types of cultured cells was evaluated by inoculating each type of cells in wells of 24 wells plastic plate (Costar 3524, manufactured by Costar) at 3×10^4 cells/1 ml medium/well; incubating the plate in an incubator of 5% CO2 for one day; and adding the III-121C sample to the cell cultures to observe the cell morphology for another two days.
K-ras-NIH 3T3 and H-ras-NIH 3T3 are transformed cell lines, and the cells are elongated with projections or processes on their surface, and grow atop the other. N-ras-NIH 3T3 cells are also elongated and their projections or processes are even longer.

NIH 3T3 cells = experiment: Propagation inhibitory effect on NIH 3T3 cells; format: cell-based; details: Mus musculus, NIH3T3, 72 h; NIH 3T3, 3 days; read-out: IC50, cell propagation
Description: as §1, §2

RSV NRK cells = experiment: Propagation inhibitory effect on RSV NRK cells; format: cell-based; details: Rattus norvegicus, 72 h, 33° C., 3 days, read-out: IC50, cell propagation
K-ras-NIH 3T3 cells [5] = experiment: Propagation inhibitory effect on K-ras-NIH 3T3 cells; format: cell-based; details: Mus musculus, NIH3T3, 72 h; K-ras-NIH 3T3, 3 days; read-out: IC50, cell propagation
Description: as §1, §2

cell morphology = experiment: Cell morphology normalizing activity (extract, fractions, purified product); format: cell-based
Description: The inventors of the present invention then succeeded in the isolation and characterization of the active component in the extract. The present invention has been completed on the bases of such study.
To a small amount of chloroform was dissolved 1.34 g of the extract, and the resulting solution was charged in a column having packed therein 10 g of silica gel (Merck silicagel 60, manufactured by Merck). To the column was first added 100% chloroform to elute the impurities, and then, 100:1 chloroform:methanol was added and the eluate was fractionated into portions of about 10 ml. Each fraction was examined by thin layer chromatography (silica gel; 20:1 chloroform:methanol solvent; UV 330 nm), and fractions having an Rf of 0.56 with blue color were collected.
The thus obtained active substance was dissolved in a small amount of methanol. After removing the precipitates, the solution was charged in a column of Toyopearl HW-40 that had been equilibrated with methanol to thereby carry out the gel filtration chromatography. The column was eluted with 100% methanol and 3 ml fractions were collected. The thus collected fractions were analyzed by thin layer chromatography using 20:1 chloroform:methanol for the developer. […] This substance is hereinafter referred to as III-121C.

cancer cell = experiment: 50% inhibition of cancer cell propagation, various cell lines; format: cell-based; details: varies by type of cancer cell; approximately; Table 1; read-out: concentration (IC50) required for 50% inhibition of the cancer cell propagation
Description: as §2

CCC12CC(C(=O)OC)=C3Nc4cc5c(cc4C34CCN(CC3OC31)C42)C1C(O5)C(O)C2(CC)CC(C(=O)OC)=C3Nc4c(cc(O)c(OC)c4OC)C34CCN1C42 (centres unmarked) [III-121C]
actin filaments / cell morphology (H-ras-NIH 3T3 cells [1]): morphology of normal cells with longitudinally extending linear actin filaments | tumor growth inhibition (K-ras-NRK tumor): the growth of the tumor was inhibited in a dose dependent manner; also recorded: growth suppression of tumors in living mammals | cell propagation inhibition (cell growth curve, FIG. 7) (K-ras^ts NRK cells; K-ras^ts-NRK, 33° C., different concentrations): inhibited the cell propagation in concentration dependent manner | IC50 (K-ras^ts NRK cells; 33° C.): 0.29 µg/mL (≈ 0.365 µM) | IC50 (K-ras^ts NRK cells; 39° C.): 0.2 µg/mL (≈ 0.252 µM) | IC50 (H-ras-NIH 3T3 cells [2]): 0.48 µg/mL (≈ 0.604 µM) | LD50 [3]: 24.3 mg/kg | acute toxicity in words (mouse): weaker toxicity; also recorded: low acute toxicity | change in cell morphology and growth habits (K-ras-NIH 3T3 cells [4]): the cells changed their morphology and growth habits to those of normal NIH 3T3 cells, and became flat with an increased area of contact | IC50 (NIH 3T3 cells): 0.47 µg/mL (≈ 0.591 µM) | IC50 (RSV NRK cells): 0.11 µg/mL (≈ 0.138 µM) | IC50 (K-ras-NIH 3T3 cells [5]): 0.4 µg/mL (≈ 0.503 µM) | activity of normalizing the cell morphology (cell morphology): confirmed to have an activity of normalizing the cell morphology | IC50 (cancer cell): 0.1 to 0.5 µg/mL (≈ 0.126 to 0.629 µM)
